Laboratory results reported in PMC5947877 (Phytomedicine : international journal of phytotherapy and …, 2017).
Entries after “also recorded” stand apart in the source; their conditions may differ.

Legend:
recombinant human MAO-A [1] = target: T1, recombinant human MAO-A (Homo sapiens, UniProt P21397); test: Enzyme kinetics and mechanism of inhibition with MAO-A; format: biochemical; settings: for Type of Inhibition, Monoamine oxidase-A: Lineweaver-Burk analysis, reversibility from dialysis
T1 sequence (P21397 1-527): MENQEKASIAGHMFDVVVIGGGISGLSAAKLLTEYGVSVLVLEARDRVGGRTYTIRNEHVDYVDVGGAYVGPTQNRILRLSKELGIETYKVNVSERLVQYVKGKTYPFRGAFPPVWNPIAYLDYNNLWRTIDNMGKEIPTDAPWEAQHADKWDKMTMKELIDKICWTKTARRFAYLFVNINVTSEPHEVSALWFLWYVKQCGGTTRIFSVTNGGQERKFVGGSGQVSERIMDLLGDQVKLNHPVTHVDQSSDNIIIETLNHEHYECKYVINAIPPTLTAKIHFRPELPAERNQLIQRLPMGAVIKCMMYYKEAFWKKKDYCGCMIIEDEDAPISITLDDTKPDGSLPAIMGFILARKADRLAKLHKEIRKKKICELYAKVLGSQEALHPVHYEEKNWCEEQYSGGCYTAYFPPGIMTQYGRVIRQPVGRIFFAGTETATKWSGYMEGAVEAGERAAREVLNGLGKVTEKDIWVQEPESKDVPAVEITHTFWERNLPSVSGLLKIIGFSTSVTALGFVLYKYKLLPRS

recombinant human MAO-A [2] = target: T1, recombinant human MAO-A; settings: dialysis 14-16 h at 4 °C
recombinant human MAO-B = target: T2, recombinant human MAO-B (Homo sapiens, UniProt P27338); test: Fluorometric kynuramine deamination assay, MAO-B inhibition; format: biochemical
T2 sequence (P27338 1-520): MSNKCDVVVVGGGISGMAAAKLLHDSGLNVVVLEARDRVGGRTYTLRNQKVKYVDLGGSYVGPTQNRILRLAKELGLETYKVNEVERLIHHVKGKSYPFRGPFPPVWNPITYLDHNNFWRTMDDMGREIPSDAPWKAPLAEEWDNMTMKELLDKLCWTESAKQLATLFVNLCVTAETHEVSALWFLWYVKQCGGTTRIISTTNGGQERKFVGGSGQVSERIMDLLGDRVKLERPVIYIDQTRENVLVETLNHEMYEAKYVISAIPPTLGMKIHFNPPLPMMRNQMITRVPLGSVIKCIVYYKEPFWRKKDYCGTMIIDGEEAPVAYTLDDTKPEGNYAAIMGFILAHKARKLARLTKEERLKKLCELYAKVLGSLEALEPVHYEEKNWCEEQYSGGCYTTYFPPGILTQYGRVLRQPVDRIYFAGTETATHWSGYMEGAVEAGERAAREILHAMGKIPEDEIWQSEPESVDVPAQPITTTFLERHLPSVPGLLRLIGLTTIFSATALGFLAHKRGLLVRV

recombinant human MAO-A [3] = target: T1, recombinant human MAO-A; test: Fluorometric kynuramine deamination assay, MAO-A inhibition; format: biochemical; settings: ratio of IC50 MAO-B / MAO-A

SMILES | Ki (recombinant human MAO-A [1]) [µM] | Type of Inhibition, Monoamine oxidase-A (recombinant human MAO-A [1]) | Type of Inhibition, Monoamine oxidase-A (recombinant human MAO-A [1]; listed as myricetin) | nature of binding to MAO-A (recovery of activity after dialysis) (recombinant human MAO-A [2]) | IC50 (recombinant human MAO-B) [µM] | Type of Inhibition, Monoamine oxidase-A (recombinant human MAO-A [1]; listed as quercetin) | preferential MAO-A inhibition over MAO-B (fold) (recombinant human MAO-A [3])
O=c1c(O)c(-c2cc(O)c(O)c(O)c2)oc2cc(O)cc(O)c12 [Myricetin, myricetin] | 2.24 ± 0.25 | Mixed/Reversible | mixed-type | reversible binding; also recorded: reversible inhibition | 59.3 ± 1.78 |  | 
O=c1c(O)c(-c2ccc(O)c(O)c2)oc2cc(O)cc(O)c12 [Quercetin, quercetin] | 0.29 ± 0.03 | Competitive/Reversible |  | reversible binding; also recorded: reversible inhibition | 28.4 ± 5.41 | competitive | 18
